Patent US5547978A, “Derivatives of pyrrolidin-2-ylcarbonylheterocyclic compounds” (priority 1994, dated 1996)
Read-outs that look alike come from different tables or passages of the source.

How the values were obtained:
[1] = test system: brain prolyl endopeptidase; test: Ex vivo prolyl endopeptidase inhibition in brain after oral administration; conditions: rat, p.o.; for PEP Actively in brain (% of control): 10 mg/kg
Procedure: Ex vivo enzyme inhibition studies were performed to assess the degree of CNS availability and prolyl endpeptidase inhibition after oral administration. Compounds were dissolved in a minimal mount of ethanol (about 10% total volume) and made up to the appropriate volume with 1% polyoxyether sorbitan monooleate (Tween 80). Rats were dosed p.o. and at the appropriate times killed. The brains were removed, homogenised in the ice-cooled assay buffer, and centrifugated.

prolyl endopeptidase = target: T1, prolyl endopeptidase (Sus scrofa, UniProt P23687); test: Prolyl endopeptidase-inhibitory activity in vitro (porcine kidney enzyme, Z-Gly-Pro-p-nitroanilide substrate); assay type: biochemical
T1 construct: porcine kidney enzyme which was prepared according to methods of Walter and Yoshimoto et al; from tissue; host or cells: porcine kidney
T1 sequence (P23687 whole entry): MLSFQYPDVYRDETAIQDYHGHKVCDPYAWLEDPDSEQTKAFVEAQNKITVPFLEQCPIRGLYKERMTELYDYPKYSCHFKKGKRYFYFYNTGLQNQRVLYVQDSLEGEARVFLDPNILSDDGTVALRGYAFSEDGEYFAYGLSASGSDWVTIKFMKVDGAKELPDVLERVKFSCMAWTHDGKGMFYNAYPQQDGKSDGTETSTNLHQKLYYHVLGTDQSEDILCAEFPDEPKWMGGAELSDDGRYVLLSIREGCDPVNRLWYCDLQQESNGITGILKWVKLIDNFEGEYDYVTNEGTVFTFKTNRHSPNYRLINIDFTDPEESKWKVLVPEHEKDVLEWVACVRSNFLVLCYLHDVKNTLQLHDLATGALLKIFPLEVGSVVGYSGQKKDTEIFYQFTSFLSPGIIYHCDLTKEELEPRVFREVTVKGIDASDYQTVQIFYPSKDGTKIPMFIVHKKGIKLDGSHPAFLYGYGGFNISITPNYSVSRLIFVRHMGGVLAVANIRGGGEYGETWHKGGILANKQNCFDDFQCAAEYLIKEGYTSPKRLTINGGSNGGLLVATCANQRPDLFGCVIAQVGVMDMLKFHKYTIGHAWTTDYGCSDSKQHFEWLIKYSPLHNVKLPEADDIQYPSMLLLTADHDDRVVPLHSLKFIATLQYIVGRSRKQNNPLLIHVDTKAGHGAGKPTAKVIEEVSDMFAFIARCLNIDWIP
Procedure: A test compound (2 mg) was dissolved in DMSO (2 ml) and diluted to appropriate concentrations with DMSO. Z-Gly-Pro-p-nitroanilide (8 mg), a substrate was dissolved in dioxane (5 ml), water (27 ml) and 0.2 M phosphate buffer (pH 7.8, 40 ml). The substrate solution ([…]) was mixed with an inhibitor solution (3 ml) and followed by addition of above mentioned porcine kidney enzyme solution ([…]). Immediately after the mixing the UV absorbance at 405 nm was detected. The mixture was incubated at 37° C. for 20 min. and the UV absorbance was checked. A standard curve of absorbance (OD) vs. p-nitroaniline concentration was used to relate the absorbance to amount of substrate hydrolyzed. […] The inhibiting activity was obtained following the equation below. The IC50 value was estimated from the inhibitor concentration vs. inhibitory activity curve.
The percent inhibitory activity (%)=(ΔODc -ΔODs)/ΔODc ×100
ΔODs : ΔOD for test sample

| Compound | PEP Actively in brain (% of control) ([1]; 0.25 hr) | PEP Actively in brain (% of control) ([1]; 0.5 hr) | PEP Actively in brain (% of control) ([1]; 1 hr) | PEP Actively in brain (% of control) ([1]; 2 hr) | PEP Actively in brain (% of control) ([1]; 4 hr) | PEP Actively in brain (% of control) ([1]; 6 hr) | brain prolyl endopeptidase inhibition (potency compared with SUAM-1221) ([1]; ex vivo, in words) | duration of action on brain prolyl endopeptidase (compared with SUAM-1221) ([1]; ex vivo, in words) | IC50 (prolyl endopeptidase; porcine kidney enzyme, pH 7.8, 37° C., 20 min, read-out: IC50 (converted)) [nM] | IC50 (prolyl endopeptidase) [nM] |
| --- | --- | --- | --- | --- | --- | --- | --- | --- | --- | --- |
| O=C(c1nc2ccccc2s1)[C@@H]1CCCN1C(=O)[C@@H]1CCCN1C(=O)CCCc1ccccc1 [Example 1, 2-[1-{1-(4-Phenylbutanoyl)pyrrolidin-2(S)-ylcarbonyl}pyrrolidin-2(S)-ylcarbonyl]benzothiazole] | 42 % of control | 21 % of control | 32 % of control | 47 % of control | 69 % of control | 98 % of control | more potent than SUAM-1221 | longer duration of action | 2.14 | – |
| O=C(C1=NCCS1)[C@@H]1CCCN1C(=O)[C@@H]1CCCN1C(=O)CCCc1ccccc1 [Example 41, 2-[1-{1-(4-Phenylbutanoyl)pyrrolidin-2(S)-ylcarbonyl}pyrrolidin-2(S)-ylcarbonyl]thiazoline] | – | – | – | – | – | – | – | – | – | 3.98 |
